{"source": "patent US8962595B2", "about": "“Compositions of small molecule therapeutics” (Nexmed Holdings, Inc., priority 2010, dated 2015)", "origin": "cited, not measured here", "conditions": "water", "data": [{"smiles": "NS(=O)(=O)c1cc2c(cc1Cl)N=CNS2(=O)=O", "note": "[Chlorothiazide, chlorothiazide]", "values": [{"measurement": "Sol. H2O (reported solubility from the literature)", "value": 3000, "unit": "µg/mL"}]}]}
